Experiments:
Assay type in all cases: physicochemical
[1] = Calcium salts, physical/chemical attributes in orange juice, 450 mg/100 mL calcium load; details: for Brix/Acid Ratio: unfortified juice 18.3
From the text: (§1) The flavor of orange juice, for example, can be characterized by a unique balance of sweetness resulting from the sugar content and tartness resulting from the acid content. A challenge of fortifying orange juice with nutritionally significant amounts of calcium is maintaining the sweet to tart balance. This balance can be expressed analytically as the Brix to acid ratio, as described above. The Brix component of the ratio is the measure of soluble solids in the composition often determined by a refractometer. The acid component can be determined by titration with a base such as sodium hydroxide. The Brix to acid ratio is an analytical representation or measure of the sweet to tart taste balance.
A variety of calcium salts, i.e., calcium components, were evaluated to determine their effects on the Brix-acid ratio. In this evaluation, orange juices fortified with different calcium salts were prepared at 450 mg/100 mL of calcium load.

[2] = Calcium salts, physical/chemical attributes in orange juice, 350 mg/100 mL calcium load; details: for Brix/Acid Ratio: unfortified juice 18.3
From the text: as §1
A variety of calcium salts, i.e., calcium components, were again evaluated to determine their effects on the Brix-acid ratio but this time at 350 mg/100 mL calcium load.

[3] = pH of a 20% slurry in water
From the text: Titratable acidity and pH can be used as measures of sour perception in, e.g., beverage applications. It is well known that acidity provides a flavor lift or increased perception of flavor in a beverage.

Compound | Brix (48 Hours) [1] | Calcium - Juice (48 Hours) [1] | Titratable Acidity (%) (48 Hours) [1] | pH (48 Hours) [1] | Brix/Acid Ratio [1] | Brix (48 hrs) [2] | Calcium in Juice (48 hrs) [2] | Titratable Acidity (%) (48 hrs) [2] | pH (48 hrs) [2] | Brix/Acid Ratio [2] | pH of slurry [3]
O=P([O-])([O-])O.[Ca+2] [dicalcium phosphate anhydrous] | 12.04 | 203 mg/100 mL | 0.674% | 4.04 | 17.8 | 11.97 | 156 mg/100 mL | 0.677% | 4.04 | 17.6 | approximately 5.0
O.O.O=P([O-])([O-])O.[Ca+2] [dicalcium phosphate dihydrate] | 12.26 | 181 mg/100 mL | 0.682% | 4.21 | 18.0 | 12.33 | 141 mg/100 mL | 0.667% | 4.17 | 18.5 | 7.4
calcium gluconate monohydrate | 13.91 | 198 mg/100 mL | 0.653% | 4.00 | 21.3 | 13.56 | 154 mg/100 mL | 0.640% | 3.99 | 21.2 | –

Source: patent publication US20070003671A1, “Two-part calcium fortified compositions and methods of making the same” (priority 2005, published 2007)
